{"source": "patent US5349127A", "about": "“Expression of herbicide metabolizing cytochromes P450” (priority 1992, dated 1994)", "key": {"[1]": {"system": "S. lividans pCAO200SU1-FeS-B#9", "assay": "Sulfonylurea metabolism by washed cell suspension (Examples 6-9)", "assay_type": "in vitro ADME, Streptomyces lividans"}, "[2]": {"system": "S. lividans pCAO200SU1#12", "assay": "Sulfonylurea metabolism by washed cell suspension (Examples 6-9)", "assay_type": "in vitro ADME, Streptomyces lividans"}, "[3]": {"system": "S. lividans pCAO200SU2-FeS-A#11", "assay": "Sulfonylurea metabolism by washed cell suspension (Examples 11-12)", "assay_type": "in vitro ADME, Streptomyces lividans", "details": "substrate 10001", "method": "(§1) S. lividans transformed with pCAO200SU2-FeS-A#11 and S. lividans transformed with pCAO200 were cultured for 36 hours in 400 ml of YEME broth at 30° C. S. griseolus PH2001 (mutant without SU1) was cultured in 400 ml of sporulation broth at 30° C. Nine hours before harvesting the cells, the S. griseolus PH2001 culture was divided into two 200 ml cultures. Both received 100 ml of fresh sporulation broth and one received 36 mg of 10001 to induce cytochrome P450SU2. The cells were prepared as described above in Example 6 and the concentrations of the sulfonylurea compound 10001 and its metabolites 10002 and 10003 were determined."}, "S. lividans pCAO200": {"system": "S. lividans pCAO200", "assay": "Sulfonylurea metabolism by washed cell suspension (Examples 6-9)", "assay_type": "in vitro ADME, Streptomyces lividans"}, "[4]": {"assay": "Incubation buffer without cells, time 0 (Examples 5-9, 11, 12)", "assay_type": "in vitro ADME", "details": "no cells, 0 h", "method": "(§2) A 100 ml culture of S. griseolus ATCC 11796 in sporulation broth and a 50 ml culture of S. lividans transformed with pCAO400 in YEME broth were prepared and incubated for 24 hours as described. At that time, the S. griseolus culture was split into two 50 ml aliquots into two separate flasks and 25 ml of fresh sporulation broth was added to each and 9 mg of […] was added to one of these cultures to induce cytochrome P450SU1 expression. Fresh YEME broth (25 ml) was added to the S. lividans culture. After an additional 6 hours growth at 30° C., the cells in each culture were harvested as described above, washed twice with MOPS (50 mM, pH 7.2) and recentrifuged. The cell pellets were resuspended in four cell volumes of MOPS (50 mM, pH 7.2) containing 0.2% glucose and about 100 μg/ml of 10004. These cell suspensions were incubated at 30° C. with shaking and aliqouts were taken at 2 and 5.5 hours. The supernatant of each aliquot was analyzed by HPLC and the concentrations of the sulfonylurea compound 10004 and its metabolite 10005 were determined.\n(§3) S. lividans transformed respectively with pCAO200SU1-FeS-B#9, pCAO200SU#112and pCAO200 were cultured for 36 hours in 400 ml of YEME broth at 30° C. S. griseolus ATCC 11796 was similarly cultured in 400 ml of sporulation broth. Six hours before harvesting the cells, 150 ml of fresh YEME broth was added to the S. lividans cells, and the S. griseolus cells were split into two 200 ml cultures with 100 ml of fresh sporulation broth added to each. 10001 (36 mg) was added to one of the two S. griseolus cultures to induce cytochrome P450SU1. The cells were prepared as described above in Example 5 and the concentrations of the sulfonylurea compound 10006 and its metabolites 10007, 10008 or 10009 were determined.\nas §1"}, "[5]": {"system": "S. griseolus PH2001 induced with 10001", "assay": "Sulfonylurea metabolism by washed cell suspension (Examples 11-12)", "assay_type": "in vitro ADME, Streptomyces griseolus", "method": "as §2, §3, §1"}, "[6]": {"system": "S. griseolus PH2001 uninduced", "assay": "Sulfonylurea metabolism by washed cell suspension (Examples 11-12)", "assay_type": "in vitro ADME, Streptomyces griseolus", "method": "as §2, §3, §1"}}}
{"compound": "CCOC(=O)c1ccccc1S(=O)(=O)NC(=O)Nc1nc(O)cc(Cl)n1", "note": "[compound 10002, N-[(4-chloro-6-hydroxy-pyrimidin-2-yl)aminocarbonyl]-2-ethoxycarbonylbenzenesulfonamide]", "values": [{"measurement": "concentration in supernatant", "setting": "[1]; substrate 10001, 2 h", "result": 105, "unit": "µM"}, {"measurement": "concentration in supernatant", "setting": "[1]; substrate 10001, 4 h", "result": 116, "unit": "µM"}, {"measurement": "concentration in supernatant", "setting": "[1]; substrate 10001, 6 h", "result": 112, "unit": "µM"}, {"measurement": "concentration in supernatant", "setting": "[2]; substrate 10001, 2 h", "result": 2, "unit": "µM"}, {"measurement": "concentration in supernatant", "setting": "[2]; substrate 10001, 4 h", "result": 4, "unit": "µM"}, {"measurement": "concentration in supernatant", "setting": "[2]; substrate 10001, 6 h", "result": 6, "unit": "µM"}, {"measurement": "concentration in supernatant", "setting": "[3]; 2 h", "result": 7, "unit": "µM"}, {"measurement": "concentration in supernatant", "setting": "[3]; 4 h", "result": 12, "unit": "µM"}, {"measurement": "concentration in supernatant", "setting": "[3]; 6 h", "result": 15, "unit": "µM"}, {"measurement": "concentration in supernatant", "setting": "S. lividans pCAO200; substrate 10001, 2 h", "result": 2, "unit": "µM"}, {"measurement": "concentration in supernatant", "setting": "S. lividans pCAO200; substrate 10001, 4 h", "result": 1, "unit": "µM"}, {"measurement": "concentration in supernatant", "setting": "S. lividans pCAO200; substrate 10001, 6 h", "result": 2, "unit": "µM"}]}
{"compound": "COc1cc(Cl)nc(NC(=O)NS(=O)(=O)c2ccccc2C(=O)O)n1", "note": "[compound 10003, N-[(4-chloro-6-methoxy-pyrimidin-2-yol)aminocarbonyl]-2-carboxybenzenesulfonamide]", "values": [{"measurement": "concentration in supernatant", "setting": "[4]; Example 8, substrate 10001", "result": 0, "unit": "µM"}, {"measurement": "concentration in supernatant", "setting": "[4]; Example 11, substrate 10001", "result": 0, "unit": "µM"}, {"measurement": "concentration in supernatant", "setting": "[1]; substrate 10001, 2 h", "result": 86, "unit": "µM"}, {"measurement": "concentration in supernatant", "setting": "[1]; substrate 10001, 4 h", "result": 95, "unit": "µM"}, {"measurement": "concentration in supernatant", "setting": "[1]; substrate 10001, 6 h", "result": 94, "unit": "µM"}, {"measurement": "concentration in supernatant", "setting": "[2]; substrate 10001, 2 h", "result": 2, "unit": "µM"}, {"measurement": "concentration in supernatant", "setting": "[2]; substrate 10001, 4 h", "result": 4, "unit": "µM"}, {"measurement": "concentration in supernatant", "setting": "[2]; substrate 10001, 6 h", "result": 5, "unit": "µM"}, {"measurement": "concentration in supernatant", "setting": "[5]; substrate 10001, 2 h", "result": 7, "unit": "µM"}, {"measurement": "concentration in supernatant", "setting": "[5]; substrate 10001, 4 h", "result": 10, "unit": "µM"}, {"measurement": "concentration in supernatant", "setting": "[5]; substrate 10001, 6 h", "result": 13, "unit": "µM"}, {"measurement": "concentration in supernatant", "setting": "[6]; substrate 10001, 2 h", "result": 1, "unit": "µM"}, {"measurement": "concentration in supernatant", "setting": "[6]; substrate 10001, 4 h", "result": 2, "unit": "µM"}, {"measurement": "concentration in supernatant", "setting": "[6]; substrate 10001, 6 h", "result": 3, "unit": "µM"}, {"measurement": "concentration in supernatant", "setting": "[3]; 2 h", "result": 1, "unit": "µM"}, {"measurement": "concentration in supernatant", "setting": "[3]; 4 h", "result": 2, "unit": "µM"}, {"measurement": "concentration in supernatant", "setting": "[3]; 6 h", "result": 3, "unit": "µM"}, {"measurement": "concentration in supernatant", "setting": "S. lividans pCAO200; substrate 10001, 2 h", "result": 1, "unit": "µM"}, {"measurement": "concentration in supernatant", "setting": "S. lividans pCAO200; substrate 10001, 4 h", "result": 1, "unit": "µM"}, {"measurement": "concentration in supernatant", "setting": "S. lividans pCAO200; substrate 10001, 6 h", "result": 2, "unit": "µM"}]}
{"compound": "COC(=O)c1ccccc1S(=O)(=O)NC(=O)Nc1nc(C)cc(C)n1", "note": "[compound 10010, N-[(4,6-dimethylpyrimidin-2-yl)aminocarbonyl]-2-methoxycarbonylbenzenesulfonamide]", "values": [{"measurement": "concentration in supernatant", "setting": "[4]; Example 7, substrate 10010", "result": 87, "unit": "µM"}, {"measurement": "concentration in supernatant", "setting": "[4]; Example 12, substrate 10010", "result": 88, "unit": "µM"}, {"measurement": "concentration in supernatant", "setting": "[1]; substrate 10010, 2 h", "result": 35, "unit": "µM"}, {"measurement": "concentration in supernatant", "setting": "[1]; substrate 10010, 4 h", "result": 11, "unit": "µM"}, {"measurement": "concentration in supernatant", "setting": "[1]; substrate 10010, 6 h", "result": 4, "unit": "µM"}, {"measurement": "concentration in supernatant", "setting": "[2]; substrate 10010, 2 h", "result": 90, "unit": "µM"}, {"measurement": "concentration in supernatant", "setting": "[2]; substrate 10010, 4 h", "result": 85, "unit": "µM"}, {"measurement": "concentration in supernatant", "setting": "[2]; substrate 10010, 6 h", "result": 80, "unit": "µM"}, {"measurement": "concentration in supernatant", "setting": "[5]; substrate 10010, 2 h", "result": 64, "unit": "µM"}, {"measurement": "concentration in supernatant", "setting": "[5]; substrate 10010, 4 h", "result": 56, "unit": "µM"}, {"measurement": "concentration in supernatant", "setting": "[5]; substrate 10010, 6 h", "result": 50, "unit": "µM"}, {"measurement": "concentration in supernatant", "setting": "[6]; substrate 10010, 2 h", "result": 89, "unit": "µM"}, {"measurement": "concentration in supernatant", "setting": "[6]; substrate 10010, 4 h", "result": 88, "unit": "µM"}, {"measurement": "concentration in supernatant", "setting": "[6]; substrate 10010, 6 h", "result": 89, "unit": "µM"}, {"measurement": "concentration in supernatant", "setting": "S. lividans pCAO200; substrate 10010, 2 h", "result": 90, "unit": "µM"}, {"measurement": "concentration in supernatant", "setting": "S. lividans pCAO200; substrate 10010, 4 h", "result": 89, "unit": "µM"}, {"measurement": "concentration in supernatant", "setting": "S. lividans pCAO200; substrate 10010, 6 h", "result": 89, "unit": "µM"}]}
{"compound": "CCOC(=O)c1ccccc1S(=O)(=O)NC(=O)Nc1nc(Cl)cc(OC)n1", "note": "[compound 10001, N-[(4-chloro-6-methoxy-pyrimidin-2-yl)aminocarbonyl]-2-ethoxycarbonylbenzenesulfonamide]", "values": [{"measurement": "concentration in supernatant", "setting": "[4]; Example 8, substrate 10001", "result": 291, "unit": "µM"}, {"measurement": "concentration in supernatant", "setting": "[4]; Example 11, substrate 10001", "result": 279, "unit": "µM"}, {"measurement": "concentration in supernatant", "setting": "[1]; substrate 10001, 2 h", "result": 28, "unit": "µM"}, {"measurement": "concentration in supernatant", "setting": "[1]; substrate 10001, 4 h", "result": 0, "unit": "µM"}, {"measurement": "concentration in supernatant", "setting": "[1]; substrate 10001, 6 h", "result": 0, "unit": "µM"}, {"measurement": "concentration in supernatant", "setting": "[2]; substrate 10001, 4 h", "result": 276, "unit": "µM"}, {"measurement": "concentration in supernatant", "setting": "[2]; substrate 10001, 6 h", "result": 276, "unit": "µM"}, {"measurement": "concentration in supernatant", "setting": "[5]; substrate 10001, 2 h", "result": 286, "unit": "µM"}, {"measurement": "concentration in supernatant", "setting": "[5]; substrate 10001, 4 h", "result": 256, "unit": "µM"}, {"measurement": "concentration in supernatant", "setting": "[5]; substrate 10001, 6 h", "result": 234, "unit": "µM"}, {"measurement": "concentration in supernatant", "setting": "[6]; substrate 10001, 2 h", "result": 271, "unit": "µM"}, {"measurement": "concentration in supernatant", "setting": "[6]; substrate 10001, 4 h", "result": 264, "unit": "µM"}, {"measurement": "concentration in supernatant", "setting": "[6]; substrate 10001, 6 h", "result": 244, "unit": "µM"}, {"measurement": "concentration in supernatant", "setting": "[3]; 2 h", "result": 279, "unit": "µM"}, {"measurement": "concentration in supernatant", "setting": "[3]; 4 h", "result": 273, "unit": "µM"}, {"measurement": "concentration in supernatant", "setting": "[3]; 6 h", "result": 251, "unit": "µM"}, {"measurement": "concentration in supernatant", "setting": "S. lividans pCAO200; substrate 10001, 2 h", "result": 301, "unit": "µM"}, {"measurement": "concentration in supernatant", "setting": "S. lividans pCAO200; substrate 10001, 4 h", "result": 287, "unit": "µM"}, {"measurement": "concentration in supernatant", "setting": "S. lividans pCAO200; substrate 10001, 6 h", "result": 313, "unit": "µM"}]}
